Source: patent publication US8247211B2, “Glycopeptide antibiotics” (American Cyanamid Company, priority 2001, dated 2012)
In brackets after ≈: the same amount, converted by molar mass. Numbered stars: 1 amine (or outer) side, 2 acyl side, 3 side chain; on linkers, the order of the positions; unused ones are H or OH. Square brackets hold non-standard residues; d marks the D form. Peptide text beside a SMILES is read from it. * marks the point of attachment. ξ: configuration not given here. X1 = N=C1NCC(C(O)C(N[*:1])C(=O)[*:2])N1C1OC(CO)C(O)C(O)C1O; ξEnduracididine(βξ-OH,4'ξ) = N=C1NCC(C(O)C(N)C(=O)O)N1; ξPhe(4-Cl,βξ-Me) = CC(c1ccc(Cl)cc1)C(N)C(=O)O; X2 = OCC1OC(OC2C(CO)OC(*)C(O)C2O)C(O)C(O)C1O

Experiments:
Experiment in all cases: In vitro antibacterial evaluation: minimum inhibitory concentration (MIC), broth dilution method
Format in all cases: cell-based
Enterococcus sp. = system: Enterococcus sp.
Experimental: (§1) The minimum inhibitory concentration (MIC), the lowest concentration of the antibiotic which inhibits growth of the test organism, is determined by the broth dilution method using Muller-Hinton II […] (Baltimore Biological Laboratories) following the recommendations of the National Committee for Clinical Laboratory Standards [Methods for dilution antimicrobial susceptibility tests for bacteria that grow aerobically, approved standard M7-A2, National Committee for Clinical Laboratory Standards, Villanova, Pa].
(§2) An inoculum level of 5×10^5 CFU/mL, and a range of antibiotic concentrations (64-0.06 μg/mL) is used. […] The test organisms include a spectrum of Gram-positive bacteria comprised of Staphylococcus sp., Streptococcus sp. and Enterococcus sp. These organisms include recent clinical isolates that are resistant to methicillin, penicillin and/or vancomycin.

Escherichia coli = Escherichia coli (GC 4560)
Experimental: as §1, §2

Streptococcus sp. = conditions: 18 hours at 35° C.
Experimental: as §1, §2

Staphylococcus sp. = conditions: 18 hours at 35° C.
Experimental: as §1, §2

Row | MIC Coagulase Negative Staphylococcus (GC 4547) (Staphylococcus sp.) [µg/mL] | MIC Coagulase Negative Staphylococcus (GC 4547) (Staphylococcus sp.; broth dilution) [µg/mL] | MIC Coagulase Negative Staphylococcus (GC 4548) (Staphylococcus sp.) [µg/mL] | MIC Coagulase Negative Staphylococcus (GC 4548) (Staphylococcus sp.; broth dilution) [µg/mL] | MIC Coagulase Negative Staphylococcus (GC 4549) (Staphylococcus sp.) [µg/mL] | MIC Coagulase Negative Staphylococcus (GC 4549) (Staphylococcus sp.; broth dilution) [µg/mL] | MIC Staphylococcus aureus (ATCC 29213) (Staphylococcus sp.) [µg/mL] | MIC Staphylococcus aureus (ATCC 29213) (Staphylococcus sp.; broth dilution) [µg/mL] | MIC Staphylococcus aureus (GC 4541) (Staphylococcus sp.) [µg/mL] | MIC Staphylococcus aureus (GC 4541) (Staphylococcus sp.; broth dilution) [µg/mL] | MIC Staphylococcus aureus (GC 4544) (Staphylococcus sp.) [µg/mL] | MIC Staphylococcus aureus (GC 4544) (Staphylococcus sp.; broth dilution) [µg/mL] | MIC Staphylococcus aureus (GC 4545) (Staphylococcus sp.) [µg/mL] | MIC Staphylococcus aureus (GC 4545) (Staphylococcus sp.; broth dilution) [µg/mL] | MIC Staphylococcus aureus-SMITH (GC 4543) (Staphylococcus sp.) [µg/mL] | MIC Staphylococcus aureus-SMITH (GC 4543) (Staphylococcus sp.; broth dilution) [µg/mL] | MIC Escherichia coli (GC 4560) (Escherichia coli) [µg/mL] | MIC Coagulase Negative Staphylococcus (GC 4551) (Staphylococcus sp.) [µg/mL] | Compound | MIC Staphylococcus haemolyticus (GC 4546) (Staphylococcus sp.) [µg/mL] | MIC Staphylococcus haemolyticus (GC 4546) (Staphylococcus sp.; broth dilution) [µg/mL] | also measured
1 | – | – | – | – | – | – | – | – | – | – | – | – | – | – | – | – | – | – | CC(c1ccccc1)C1NC(=O)CNC(=O)C(CO)NC(=O)C(CC2CNC(=N)N2C2OC(CO)C(O)C(O)C2O)NC(=O)C(CC2CNC(=N)N2)NC(=O)C(Cc2ccc(OC3OC(CO)C(OC4OC(CO)C(O)C(O)C4OCc4ccc(OCc5ccccc5)cc4)C(O)C3O)cc2)NC1=O (centres unmarked) [Example 246c] | – | – | MIC Enterococcus avium (GC 4558) (Enterococcus sp.; Enterococcus avium (GC 4558), 18 hours at 35° C.): 64 µg/mL (≈ 43.8 µM); MIC Escherichia coli (GC 4560) (Escherichia coli; 18 hours at 35° C.): 32 µg/mL (≈ 21.9 µM); MIC Streptococcus pneumoniae (GC 1894) (Streptococcus sp.; Streptococcus pneumoniae (GC 1894)): 64 µg/mL (≈ 43.8 µM); MIC Streptococcus pneumoniae (GC 1894) (Streptococcus sp.; broth dilution, inoculum 5×10^5 CFU/mL): 64 µg/mL (≈ 43.8 µM)
2 | 64 (≈ 48.1 µM) | 64 (≈ 48.1 µM) | 64 (≈ 48.1 µM) | 64 (≈ 48.1 µM) | 16 (≈ 12 µM) | 16 (≈ 12 µM) | 64 (≈ 48.1 µM) | 64 (≈ 48.1 µM) | 64 (≈ 48.1 µM) | 64 (≈ 48.1 µM) | 64 (≈ 48.1 µM) | 64 (≈ 48.1 µM) | 64 (≈ 48.1 µM) | 64 (≈ 48.1 µM) | 64 (≈ 48.1 µM) | 64 (≈ 48.1 µM) | 16 (≈ 12 µM) | – | CC(c1ccc(Cl)cc1)C1NC(=O)CNC(=O)C(CO)NC(=O)C(C(O)C2CNC(=N)N2C2OC(CO)C(O)C(O)C2O)NC(=O)C(C(O)C2CNC(=N)N2)NC(=O)C(Cc2ccc(OC3OC(CO)C(OC4OC(CO)C(O)C(O)C4O)C(O)C3O)cc2)NC1=O (stereo not drawn) [Example 262a, Cyclo[glycyl-4-chloro-β-methylphenylalanyl-O-(4-O-hexopyranosylhexopyranosyl)tyrosyl-3-(2-iminoimidazolidin-4-yl)seryl-3-(3-hexopyranosyl-2-iminoimidazolidin-4-yl)serylseryl]] (cyclo(G[ξPhe(4-Cl,βξ-Me)]Y(X2)[ξEnduracididine(βξ-OH,4'ξ)][X1]S); configuration not given here) | 64 (≈ 48.1 µM) | 64 (≈ 48.1 µM) | MIC Streptococcus agalactiae (GC 4564) (Streptococcus sp.; Streptococcus agalactiae (GC 4564)): 32 µg/mL (≈ 24.1 µM); MIC Streptococcus pyogenes (ID-3187) (Streptococcus sp.; Streptococcus pyogenes (ID-3187)): 32 µg/mL (≈ 24.1 µM)
3 | 64 (≈ 47.4 µM) | 64 (≈ 47.4 µM) | 64 (≈ 47.4 µM) | 64 (≈ 47.4 µM) | 32 (≈ 23.7 µM) | 32 (≈ 23.7 µM) | 64 (≈ 47.4 µM) | 64 (≈ 47.4 µM) | 64 (≈ 47.4 µM) | 64 (≈ 47.4 µM) | 64 (≈ 47.4 µM) | 64 (≈ 47.4 µM) | 64 (≈ 47.4 µM) | 64 (≈ 47.4 µM) | 64 (≈ 47.4 µM) | 64 (≈ 47.4 µM) | 32 (≈ 23.7 µM) | 64 (≈ 47.4 µM) | CC(C)C(=O)OCC1OC(OC2C(CO)OC(Oc3ccc(CC4NC(=O)C(Cc5ccccc5)NC(=O)CNC(=O)C(CO)NC(=O)C(C(O)C5CNC(=N)N5C5OC(CO)C(O)C(O)C5O)NC(=O)C(C(O)C5CNC(=N)N5)NC4=O)cc3)C(O)C2O)C(O)C(O)C1O (centres unmarked) [Example 283a] | 64 (≈ 47.4 µM) | 64 (≈ 47.4 µM) | MIC Coagulase Negative Staphylococcus (GC 4551) (Staphylococcus sp.; broth dilution): 64 µg/mL (≈ 47.4 µM); MIC Staphylococcus aureus (GC 1131) (Staphylococcus sp.): 64 µg/mL (≈ 47.4 µM); MIC Staphylococcus aureus (GC 1131) (Staphylococcus sp.; broth dilution): 64 µg/mL (≈ 47.4 µM); MIC Staphylococcus aureus (GC 3051) (Staphylococcus sp.): 64 µg/mL (≈ 47.4 µM); MIC Staphylococcus aureus (GC 3051) (Staphylococcus sp.; broth dilution): 64 µg/mL (≈ 47.4 µM); MIC Staphylococcus aureus (GC 4542) (Staphylococcus sp.): 64 µg/mL (≈ 47.4 µM); MIC Staphylococcus aureus (GC 4542) (Staphylococcus sp.; broth dilution): 64 µg/mL (≈ 47.4 µM); MIC Enterococcus faecium (GC 4557) (Enterococcus sp.): 64 µg/mL (≈ 47.4 µM)
4 | 16 (≈ 11.7 µM) | 16 (≈ 11.7 µM) | 8 (≈ 5.86 µM) | 8 (≈ 5.86 µM) | 16 (≈ 11.7 µM) | 16 (≈ 11.7 µM) | 32 (≈ 23.4 µM) | 32 (≈ 23.4 µM) | 32 (≈ 23.4 µM) | 32 (≈ 23.4 µM) | 32 (≈ 23.4 µM) | 32 (≈ 23.4 µM) | 16 (≈ 11.7 µM) | 16 (≈ 11.7 µM) | 16 (≈ 11.7 µM) | 16 (≈ 11.7 µM) | 8 (≈ 5.86 µM) | 32 (≈ 23.4 µM) | CC(C)CC(=O)OCC1OC(OC2C(CO)OC(Oc3ccc(CC4NC(=O)C(Cc5ccccc5)NC(=O)CNC(=O)C(CO)NC(=O)C(C(O)C5CNC(=N)N5C5OC(CO)C(O)C(O)C5O)NC(=O)C(C(O)C5CNC(=N)N5)NC4=O)cc3)C(O)C2O)C(O)C(O)C1O (centres unmarked) [Example 283c, Cyclo[glycylphenylalanyl-O-[4-O-[6-O-(3-methylbutanoyl)-hexopyranosyl]hexopyranosyl]tyrosyl-3-(2-iminoimidazolidin-4-yl)seryl-3-(3-hexopyranosyl-2-iminoimidazolidin-4-yl)serylseryl]] | 16 (≈ 11.7 µM) | 16 (≈ 11.7 µM) | MIC Coagulase Negative Staphylococcus (GC 4551) (Staphylococcus sp.; broth dilution): 32 µg/mL (≈ 23.4 µM); MIC Staphylococcus aureus (GC 1131) (Staphylococcus sp.): 32 µg/mL (≈ 23.4 µM); MIC Staphylococcus aureus (GC 1131) (Staphylococcus sp.; broth dilution): 32 µg/mL (≈ 23.4 µM); MIC Staphylococcus aureus (GC 3051) (Staphylococcus sp.): 32 µg/mL (≈ 23.4 µM); MIC Staphylococcus aureus (GC 3051) (Staphylococcus sp.; broth dilution): 32 µg/mL (≈ 23.4 µM); MIC Staphylococcus aureus (GC 3053) (Staphylococcus sp.): 64 µg/mL (≈ 46.9 µM); MIC Staphylococcus aureus (GC 3053) (Staphylococcus sp.; broth dilution): 64 µg/mL (≈ 46.9 µM); MIC Staphylococcus aureus (GC 4542) (Staphylococcus sp.): 32 µg/mL (≈ 23.4 µM); MIC Staphylococcus aureus (GC 4542) (Staphylococcus sp.; broth dilution): 32 µg/mL (≈ 23.4 µM); MIC Enterococcus faecium (GC 4557) (Enterococcus sp.): 16 µg/mL (≈ 11.7 µM)
